Values quoted from earlier work, collected in US8808722B2, “Stable antiseptic compositions and methods” (3M Innovative Properties Company, priority 2010, dated 2014).

Details: at 25° C.

Q: For `II` [elemental iodine, iodine], which solubility in water is on record?
A: 0.03 wt-%
